In ChEMBL document CHEMBL2146467, “Generation and exploration of new classes of antitubercular agents: The optimization of oxazolines, oxazoles, thiazolines, thiazoles to imidazo[1,2-a]pyridines and isomeric 5,6-fused scaffolds” (Bioorg Med Chem, 2012):
≈ marks a conversion by molar mass, not a printed value.

Test system: Mycobacterium tuberculosis
Assay: Antimycobacterial activity against Mycobacterium bovis BCG
Assay type: functional
Settings: variant bovis BCG

## Cc1ccn2c(C(=O)NCc3ccccc3)c(C)nc2c1
  MIC: 0.3 µM (≈ 0.0838 µg/mL)
